Data reported in PubChem BioAssay (NCI).
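Assay format: 96-well plates, 48-hour exposure. At the GI50, growth is halved. TGI: total growth inhibition.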

How the values were obtained:
Assay in all cases: DTP human tumour cell line panel, 48 h
MDA-MB-435 = tested on: MDA-MB-435
MDA-MB-231 breast = tested on: MDA-MB-231 breast
HCT-15 colon = tested on: HCT-15 colon
SF-295 CNS = tested on: SF-295 CNS
SW-620 colon = tested on: SW-620 colon
COLO 205 colon = tested on: COLO 205 colon
OVCAR-3 ovarian = tested on: OVCAR-3 ovarian
NCI-H226 lung = tested on: NCI-H226 lung
SK-OV-3 ovarian = tested on: SK-OV-3 ovarian
SNB-19 CNS = tested on: SNB-19 CNS
MCF7 breast = tested on: MCF7 breast
BT-549 breast = tested on: BT-549 breast

| SMILES | TGI (MDA-MB-435) | TGI (MDA-MB-231 breast) | TGI (HCT-15 colon) | TGI (SF-295 CNS) | TGI (SW-620 colon) | TGI (COLO 205 colon) | TGI (OVCAR-3 ovarian) | TGI (NCI-H226 lung) | TGI (SK-OV-3 ovarian) | TGI (SNB-19 CNS) | TGI (MCF7 breast) | TGI (BT-549 breast) | GI50 (MDA-MB-435) | GI50 (MDA-MB-231 breast) | GI50 (SF-295 CNS) | GI50 (MCF7 breast) | GI50 (OVCAR-3 ovarian) | GI50 (BT-549 breast) | GI50 (SK-OV-3 ovarian) |
| --- | --- | --- | --- | --- | --- | --- | --- | --- | --- | --- | --- | --- | --- | --- | --- | --- | --- | --- | --- |
| O=C1C=C2S[C@H]3C[C@]2(C=C1Br)c1c(c(O)c2c4c1=NCCC=4C=N2)N3 | 0.305 µM | 1.16 µM | 1.99 µM | 2.83 µM | 0.237 µM | 0.21 µM | 1.12 µM | 4.86 µM | 17.1 µM | 25.7 µM |  |  |  |  |  |  |  |  |  |
| C=C1c2nc3ccccc3n2C=C(c2ccc(Cl)cc2)N1c1ccc(OCCN2CCOCC2)cc1 | > 100 µM | > 100 µM | > 100 µM |  | > 100 µM | 98.6 µM | > 100 µM | > 100 µM | > 100 µM | > 100 µM | > 100 µM | > 100 µM |  |  |  |  |  |  |  |
| O=C(N=Nc1ccc([N+](=O)[O-])cc1)NNc1ccc([N+](=O)[O-])cc1 | 57.5 µM | 76.2 µM | 62.8 µM |  | 45.4 µM |  | 59.2 µM | 51 µM |  | > 100 µM | 22.9 µM | > 100 µM |  |  |  |  |  |  |  |
| CCN(CC)CCN1C(=O)c2cccc3c(-c4ccc5c(c4)ncn5C4CCCCC4)ccc(c23)C1=O | 3.22 µM | 3.19 µM |  | 2.69 µM |  |  | 3.64 µM |  | 4.18 µM |  | 4.65 µM | 2.3 µM | 1.68 µM | 1.63 µM | 1.18 µM | 1.74 µM | 1.73 µM | 0.922 µM | 1.97 µM |
| Nn1c(CNc2ccc(-c3nnc(Nc4ccc(Cl)cc4)n3N)cc2)nnc1Nc1ccc(Cl)cc1 | > 100 µM | > 100 µM | > 100 µM | > 100 µM | > 100 µM | > 100 µM |  | > 100 µM | > 100 µM | > 100 µM | > 100 µM | > 100 µM |  |  |  |  |  |  |  |
| O=c1oc2ncccc2n1Cc1ccc([N+](=O)[O-])cc1 | > 100 µM | > 100 µM | > 100 µM | > 100 µM | > 100 µM | > 100 µM | > 100 µM | > 100 µM | > 100 µM |  | > 100 µM | > 100 µM |  |  |  |  |  |  |  |
| COC1/C=C\C=C(/C)C(=O)NC2=CC(=O)C=C(C2=O)C(OC)C(C)CC(OC)C(OC)C(C)/C=C(/C)C1OC(N)=O (centres undefined) |  |  | 15.4 µM | 35.4 µM | 2.8 µM | 11.4 µM | 7.23 µM | 37 µM | 27.8 µM | 30.7 µM | 8.37 µM |  |  |  |  |  |  |  |  |
| CSCCC(NC(=O)C(Cc1ccccc1)NC(=O)CNC(=O)CNC(=O)C(N)Cc1ccc(O)cc1)C(=O)O (centres undefined) |  |  | > 100 µM | > 100 µM | > 100 µM | > 100 µM | > 100 µM |  | > 100 µM | > 100 µM | > 100 µM |  |  |  |  |  |  |  |  |
| C=CCn1c2ccccc2c2c(C)c3cnccc3c(C)c21 |  |  | > 95.5 µM | 52.5 µM | 59.1 µM | 72.5 µM | 48.6 µM | 40.3 µM | 38.5 µM | > 78.2 µM | 62.6 µM |  |  |  |  |  |  |  |  |
| Cc1nn2c(N)cc(=O)nc2nc1/C=C/c1ccc(N(C)C)cc1 | > 100 µM | > 100 µM | > 27.9 µM | > 100 µM | > 100 µM | > 100 µM |  | > 100 µM | > 100 µM | > 100 µM | > 100 µM | > 100 µM |  |  |  |  |  |  |  |
| Cn1c(-c2ccccc2)cc(-c2ccc3c(c2)OCO3)c1-c1cccs1 | > 100 µM |  | > 100 µM | > 100 µM | > 100 µM | > 100 µM | > 100 µM | > 100 µM | > 100 µM | > 100 µM | > 100 µM | > 100 µM |  |  |  |  |  |  |  |
| CCOC(=O)/C(C(=S)NC)=C(/N)N1CCCC1 | > 100 µM | > 100 µM | > 100 µM | > 100 µM | > 100 µM | > 100 µM | > 100 µM | > 100 µM | > 100 µM | > 100 µM |  |  |  |  |  |  |  |  |  |
| O=C1/C(=C/c2ccc(O)cc2)NC(=S)N1CN1CCCCC1 | > 100 µM | > 100 µM | > 100 µM | > 100 µM | > 100 µM | 56.4 µM | > 100 µM | > 100 µM | > 100 µM | > 100 µM | > 100 µM |  |  |  |  |  |  |  |  |
| OC(c1cc(C(O)(C(F)(F)F)C(F)(F)F)ncn1)(C(F)(F)F)C(F)(F)F | > 10 µM | > 10 µM | > 10 µM | > 10 µM | > 10 µM | > 10 µM | > 10 µM | > 10 µM | > 10 µM | > 10 µM | > 10 µM |  |  |  |  |  |  |  |  |
| CC1=CC(c2ccccc2)OP1(=O)c1ccccc1 (centres undefined) | > 100 µM |  | > 100 µM | > 100 µM | > 100 µM | > 100 µM | > 100 µM | > 100 µM | > 100 µM | > 100 µM | > 100 µM |  |  |  |  |  |  |  |  |
| CC(=O)OC1C=CC2CCN3C(=O)c4cc5c(cc4[C@H]1C23)OCO5 (some centres undefined) |  |  | > 100 µM | > 100 µM | > 100 µM | > 100 µM | > 100 µM | > 100 µM | > 100 µM | > 100 µM |  |  |  |  |  |  |  |  |  |
| N#CC12COC3(CCCCC3C1(C#N)C#N)OC2=N (centres undefined) | 64.7 µM | 33.3 µM |  | 43.1 µM | > 100 µM | 19.2 µM | 23.1 µM | 71.2 µM | > 100 µM | 36 µM | 29.5 µM | 30.5 µM |  |  |  |  |  |  |  |
| Nc1[nH]c(=O)nc2sc3c(c12)CCCC3 |  | > 100 µM | > 100 µM |  | > 100 µM | > 100 µM |  | 88.8 µM | > 100 µM | > 100 µM | > 100 µM |  |  |  |  |  |  |  |  |
| O=C1CCc2c3c(c4c([nH]c5ccccc54)c2CC1)C(=O)NC3=O | 12.3 µM | > 100 µM | > 100 µM | 33.5 µM | > 100 µM | > 100 µM | > 100 µM | 23.7 µM |  | 44.4 µM | 81 µM | 28.2 µM |  |  |  |  |  |  |  |
| O=C(O)CC(NC(=O)C(F)(F)F)C(=O)NC1Cc2ccccc2OC1=O (centres undefined) | > 100 µM |  | > 100 µM | > 100 µM | > 100 µM |  | > 100 µM | > 100 µM | > 100 µM | > 100 µM | > 100 µM | > 100 µM |  |  |  |  |  |  |  |
